Laboratory results published in patent US8367700B2, “Substituted 4-(1.2,3,4-tetrahydroisoquinolin-2-yl)-4-oxobutyric acid amide as KCNQ2/3 modulators” (Gruenenthal GmbH, priority 2008, dated 2013).

What was measured:
[1] = target: T1, hKCNQ2/3 (Homo sapiens, UniProt O43525+O43526); experiment: Fluorescence assay using a voltage-sensitive dye (fluorimetry); format: cell-based; parameters: expressed in transfected cells; host or cells: CHO-K1; conditions: CHO-K1 cells expressing KCNQ2/3; for Emax at 1 µM / Emax at 10 µM: relative to retigabine = 100%; for Emax at 1 µM: read-out: Fluorimetry % Efficacy @ 1 μM (Retigabine = 100%); for Emax at 10 µM: read-out: Fluorimetry % Efficacy @ 10 μM (Retigabine = 100%)
T1 sequence (O43526 whole entry): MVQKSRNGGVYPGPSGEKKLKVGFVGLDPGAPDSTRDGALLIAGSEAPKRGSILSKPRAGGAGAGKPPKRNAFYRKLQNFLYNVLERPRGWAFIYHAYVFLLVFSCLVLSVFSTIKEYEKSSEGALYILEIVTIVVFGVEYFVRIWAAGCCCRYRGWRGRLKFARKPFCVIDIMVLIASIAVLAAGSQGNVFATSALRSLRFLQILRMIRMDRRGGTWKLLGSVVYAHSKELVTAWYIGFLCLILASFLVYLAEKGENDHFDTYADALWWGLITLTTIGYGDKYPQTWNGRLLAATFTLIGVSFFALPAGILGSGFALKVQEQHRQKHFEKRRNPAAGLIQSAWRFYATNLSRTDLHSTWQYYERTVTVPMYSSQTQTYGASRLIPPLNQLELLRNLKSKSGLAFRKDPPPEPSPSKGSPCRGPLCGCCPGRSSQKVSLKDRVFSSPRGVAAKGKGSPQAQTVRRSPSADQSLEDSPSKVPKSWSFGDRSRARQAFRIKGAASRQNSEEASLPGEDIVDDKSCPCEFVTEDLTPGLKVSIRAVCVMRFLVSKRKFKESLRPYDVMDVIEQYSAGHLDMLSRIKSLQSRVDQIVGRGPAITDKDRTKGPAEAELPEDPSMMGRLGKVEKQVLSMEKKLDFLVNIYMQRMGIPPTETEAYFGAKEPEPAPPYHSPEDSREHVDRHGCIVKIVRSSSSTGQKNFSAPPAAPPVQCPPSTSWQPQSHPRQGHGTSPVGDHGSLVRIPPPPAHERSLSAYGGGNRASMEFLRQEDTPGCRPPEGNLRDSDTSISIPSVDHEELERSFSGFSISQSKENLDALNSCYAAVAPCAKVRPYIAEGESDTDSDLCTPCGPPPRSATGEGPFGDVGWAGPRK
T1 sequence (O43525 whole entry): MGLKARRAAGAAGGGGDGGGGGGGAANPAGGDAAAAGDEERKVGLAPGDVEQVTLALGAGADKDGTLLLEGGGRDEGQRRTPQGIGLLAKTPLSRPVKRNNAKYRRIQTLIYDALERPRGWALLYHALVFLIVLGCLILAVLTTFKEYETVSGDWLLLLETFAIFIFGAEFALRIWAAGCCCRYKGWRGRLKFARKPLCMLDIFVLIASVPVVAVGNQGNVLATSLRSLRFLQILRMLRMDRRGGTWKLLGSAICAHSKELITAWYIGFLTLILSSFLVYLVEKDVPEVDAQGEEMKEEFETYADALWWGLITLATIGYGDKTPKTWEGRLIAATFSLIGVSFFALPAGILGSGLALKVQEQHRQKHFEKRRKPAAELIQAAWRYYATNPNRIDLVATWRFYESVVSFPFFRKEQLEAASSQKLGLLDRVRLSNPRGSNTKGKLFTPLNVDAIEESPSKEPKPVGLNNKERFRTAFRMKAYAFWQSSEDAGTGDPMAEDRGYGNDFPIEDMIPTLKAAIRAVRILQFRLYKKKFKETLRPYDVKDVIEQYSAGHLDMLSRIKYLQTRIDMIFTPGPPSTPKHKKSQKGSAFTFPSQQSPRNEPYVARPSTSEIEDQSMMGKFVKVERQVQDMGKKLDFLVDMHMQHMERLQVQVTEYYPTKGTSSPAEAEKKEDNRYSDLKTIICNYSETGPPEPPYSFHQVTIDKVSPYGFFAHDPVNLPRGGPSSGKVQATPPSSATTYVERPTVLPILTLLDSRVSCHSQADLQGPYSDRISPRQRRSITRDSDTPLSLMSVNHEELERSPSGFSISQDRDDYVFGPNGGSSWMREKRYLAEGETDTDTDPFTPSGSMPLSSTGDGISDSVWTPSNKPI
Description: Pharmacological Experiments Fluorescence Assay Using a Voltage-Sensitive Dye
Human CHO-K1 cells expressing KCNQ2/3 channels are cultivated adherently at 37° C., 5% CO2 and 95% humidity in cell culture bottles (e.g. 80 cm^2 TC flasks, Nunc) with DMEM-high glucose (Sigma Aldrich, D7777) including 10% FCS (PAN Biotech, e.g. 3302-P270521) or alternatively MEM Alpha Medium (1×, liquid, Invitrogen, #22571), 10% foetal calf serum (FCS) (Invitrogen, #10270-106, heat-inactivated) and the necessary selection antibiotics.
Before being sown out for the measurements, the cells are washed with a 1×DPBS buffer without Ca^2+/Mg^2+ (e.g. Invitrogen, #14190-094) and detached from the bottom of the culture vessel by means of Accutase (PAA Laboratories, #L11-007) (incubation with Accutase for 15 min at 37° C.). The cell count then present is determined using a CASY™ cell counter (TCC model, Scharfe System) in order subsequently to apply 20,000 to 30,000 cells/well/100 μl of the described nutrient medium, depending on density optimisation for the individual cell line, to 96-well measuring plates of the Corning™ CeIIBIND™ type (flat clear-bottom black polystyrene microplates, #3340).
Incubation is then carried out for one hour at room temperature, without gassing or adjusting the humidity, followed by incubation for 24 hours at 37° C., 5% CO2 and 95% humidity.
The voltage-sensitive fluorescent dye from the Membrane Potential Assay Kit (Red™ bulk format part R8123 for FLIPR, MDS Analytical Technologies™) is prepared by dissolving the contents of a vessel of Membrane Potential Assay Kit Red Component A in 200 ml of extracellular buffer (ES buffer, 120 mM NaCl, 1 mM KCl, 10 mM HEPES, 2 mM CaCl2, 2 mM MgCl2, 10 mM glucose; pH 7.4). After removal of the nutrient medium, the cells are washed with 200 μl of ES buffer, then covered with a layer of 100 μl of the dye solution prepared above and incubated for 45 min at room temperature with exclusion of light.
The fluorescence measurements are carried out with a BMG Labtech FLUOstar™ BMG Labtech NOVOstar™ or BMG Labtech POLARstar™ instrument (525 nm excitation, 560 nm emission, bottom-read mode). After incubation of the dye, 50 μl of the substances to be tested in the desired concentrations, or 50 μl of ES buffer for control purposes, are introduced into separate cavities of the measuring plate and incubated for 30 min at room temperature whilst being shielded from light. The fluorescence intensity of the dye is then measured for 5 min and the fluorescence value F1 of each well is thus determined at a given, constant time. 15 μl of a […] KCl solution ([…]) are then added to each well. The change in fluorescence is subsequently measured until all relevant measured values have been obtained (mainly 5-30 min). At a given time after KCl application, a fluorescence value F2 is determined, in this case at the time of the fluorescence peak.
For calculation, the fluorescence intensity F2 is compared with the fluorescence intensity F1, and the agonistic activity of the target compound on the potassium channel is determined therefrom. F2 and F1 are calculated as follows: […]
In order to determine whether a substance has an agonistic activity,
[formula] for example, can be compared with
[formula] of control cells.
[formula] is determined by adding to the reaction batch only the buffer solution instead of the substance to be tested, determining the value F1K of the fluorescence intensity, adding the potassium ions as described above and measuring a value F2K of the fluorescence intensity. Then F2K and F1K are calculated as follows: […]
A substance has an agonistic activity on the potassium channel if
[formula] is greater than
Independently of the comparison of
[formula] it is also possible to conclude that a target compound has an agonistic activity if an increase in
[formula] is to be observed as the dosage of the target compound increases. […]

[2] = test system: rat; experiment: Formalin test in the rat; format: in vivo, Sprague Dawley rats; conditions: phase II (21-27 min after formalin administration)
Description: The formalin test (Dubuisson, D. and Dennis, S. G., 1977, Pain, 4, 161-174) is a model for acute and chronic pain. In the tests described here, the chronic pain component (phase II of the formalin test; time interval 21-27 min after formalin administration) was analysed.
A single formalin injection into the dorsal side of one rear paw was used to induce a biphase nociceptive response in experimental animals allowed to move freely, and the response was recorded by observation of three clearly distinguishable behaviour patterns.
Formalin is administered subcutaneously in a volume of 50 μl and a concentration of 5% into the dorsal side of the right rear paw of each animal. The vehicle and the substances to be tested are administered intravenously 5 minutes before or orally 30 minutes before the formalin injection.
The specific behavioural changes, such as lifting and shaking the paw, shifting of weight by the animal and biting and licking responses, are observed and recorded continuously for 60 minutes after formalin administration. The behavioural changes are weighted differently (score 0-3) and a pain rate (PR) calculated using the formula below: PR=[(T0×0)+(T1×1)+(T2×2)+(T3×3)/180.
Sprague Dawley rats (Janvier, Belgium) are used as the phylum. The weight of the animals is between 180 and 200 g. The group size was n=10.

[3] = target: T1, hKCNQ2/3; experiment: Voltage-clamp (patch-clamp) measurements on stably transfected hKCNQ2/3 CHO-K1 cell line; format: cell-based; parameters: expressed in transfected cells; host or cells: CHO-K1 (stably transfected); conditions: 10 μM test substance at −40 mV, current increase normalised against retigabine (10 μM), read-out: Patch-clamp % Efficacy @ 10 μM (Retigabine = 100%)
Description: Voltage-Clamp Measurements
In order to confirm a KCNQ2/3 agonistic action of the substances electrophysiologically, patch-clamp measurements (Hamill O P, Marty A, Neher E, Sakmann B, Sigworth F J: Improved patch-clamp techniques for high-resolution current recording from cells and cell-free membrane patches, Pfluger's Arch. 1981 August; 391(2):85-100) were performed in voltage-clamp mode on a stably transfected hKCNQ2/3 CHO-K1 cell line. After formation of the gigaseal the cells were first clamped at a holding potential of −60 mV. Depolarising voltage jumps up to a potential of +20 mV were then applied (increment: 20 mV, duration: 1 second) in order to confirm the functional expression of KCNQ2/3-typical currents. The substances were tested at a potential of −40 mV. First of all the current increase induced by retigabine (10 μM) at −40 mV was recorded on each cell as a positive control. After completely washing out the retigabine effect (duration: 80 s) the test substance (10 μM) was applied. The current increase induced by the test substance was normalised against the retigabine effect and stated as the relative efficacy (see below).

| SMILES | Emax at 1 µM [1] [%] | EC50 [1] [µM] | further results |
| --- | --- | --- | --- |
| Cc1ccccc1C1c2ccccc2CCN1C(=O)CCC(=O)NCc1ccc(C(F)(F)F)cc1 (stereo not drawn) [Example compound 68, 4-Oxo-4-(1-(2-tolyl)-3,4-dihydro-1H-isoquinolin-2-yl)-N-[[4-(trifluoromethyl)-phenyl]methyl]butyric acid amide] | 56 | 0.149 | – |
| CC1CN(C(=O)CCC(=O)NCc2cccc(C(F)(F)F)c2)C(c2ccccc2)c2ccccc21 (stereo not drawn) [Example compound 9, 4-(4-Methyl-1-phenyl-3,4-dihydro-1H-isoquinolin-2-yl)-4-oxo-N-[[3-(trifluoromethyl)phenyl]methyl]butyric acid amide] | 51 | 0.116 | – |
| O=C(CCC(=O)N1CCc2ccccc2C1c1ccccc1)NCc1ccccc1C(F)(F)F (stereo not drawn) [Example compound 7, 4-Oxo-4-(1-phenyl-3,4-dihydro-1H-isoquinolin-2-yl)-N-[[2-(trifluoromethyl)phenyl]methyl]butyric acid amide] | 12 | – | – |
| O=C(CCC(=O)N1CCn2cccc2C1c1ccccc1)NCc1cccc(C(F)(F)F)c1 (stereo not drawn) [Example no. 2 in WO2008/046582, reference compound] | – | – | Formalin test rat i.v. @ 4.64 mg/kg % Reduction of nociceptive behaviour [2]: No effect |
| Cc1ccccc1C1c2ccccc2CCN1C(=O)CCC(=O)NCc1ccccc1C(F)(F)F (stereo not drawn) [Example compound 69, 4-Oxo-4-(1-(2-tolyl)-3,4-dihydro-1H-isoquinolin-2-yl)-N-[[2-(trifluoromethyl)-phenyl]methyl]butyric acid amide] | 67 | 0.158 | – |
| CC1c2ccccc2CCN1C(=O)CCC(=O)NCc1cccc(C(F)(F)F)c1 (stereo not drawn) [Example compound 2, 4-(1-Methyl-3,4-dihydro-1H-isoquinolin-2-yl)-4-oxo-N-[[3-(trifluoromethyl)phenyl]methyl]butyric acid amide] | – | 10.4 | Emax at 10 µM [3]: 17% |
| CC1Cc2ccccc2C(c2ccccc2)N1C(=O)CCC(=O)NCc1cccc(C(F)(F)F)c1 (stereo not drawn) [Example compound 13, 4-(3-Methyl-1-phenyl-3,4-dihydro-1H-isoquinolin-2-yl)-4-oxo-N-[[3-(trifluoromethyl)phenyl]methyl]butyric acid amide] | 29 | – | – |

Second part, led by results:

| Emax at 1 µM [1] [%] | EC50 [1] [µM] | SMILES | further results |
| --- | --- | --- | --- |
| 30 | – | COc1ccc2c(c1)C(c1ccccc1)N(C(=O)CCC(=O)NCc1cccc(C(F)(F)F)c1)CC2 (stereo not drawn) [Example compound 11, 4-(7-Methoxy-1-phenyl-3,4-dihydro-1H-isoquinolin-2-yl)-4-oxo-N-[[3-(trifluoromethyl)phenyl]methyl]butyric acid amide] | – |
| -7 | – | COc1cccc2c1CCN(C(=O)CCC(=O)NCc1cccc(C(F)(F)F)c1)C2c1ccccc1 (stereo not drawn) [Example compound 12, 4-(5-Methoxy-1-phenyl-3,4-dihydro-1H-isoquinolin-2-yl)-4-oxo-N-[[3-(trifluoromethyl)phenyl]methyl]butyric acid amide] | – |
| 76 | 1.05 | O=C(CCC(=O)N1CCc2ccccc2C1c1cccs1)NCc1cccc(C(F)(F)F)c1 (stereo not drawn) [Example compound 3, 4-Oxo-4-(1-thien-2-yl-3,4-dihydroisoquinolin-2(1H)-yl)-N-(3-(trifluoromethyl)benzyl)butyric acid amide] | Emax at 10 µM [1]: 134% |
| 11 | – | O=C(CCC(=O)N1CCc2ccccc2C1c1ccncc1)NCc1cccc(C(F)(F)F)c1 (stereo not drawn) [Example compound 4, 4-Oxo-4-[1-(4-pyridyl)-3,4-dihydro-1H-isoquinolin-2-yl]-N-[[3-(trifluoromethyl)phenyl]methyl]butyric acid amide] | Emax at 10 µM [1]: 35% |
| 112 | 0.215 | Cc1ccccc1C1c2ccccc2CCN1C(=O)CCC(=O)NCc1cccc(C(F)(F)F)c1 (stereo not drawn) [Example compound 67, 4-Oxo-4-(1-(2-tolyl)-3,4-dihydro-1H-isoquinolin-2-yl)-N-[[3-(trifluoromethyl)-phenyl]methyl]butyric acid amide] | – |
| 63 | – | O=C(CCC(=O)N1CCc2ccccc2C1c1ccccc1)NCc1ccc(C(F)(F)F)cc1 (stereo not drawn) [Example compound 8, 4-Oxo-4-(1-phenyl-3,4-dihydro-1H-isoquinolin-2-yl)-N-[[4-(trifluoromethyl)phenyl]methyl]butyric acid amide] | – |
| 69 | 0.083 | O=C(CCC(=O)N1CCc2ccc(F)cc2C1c1ccccc1)NCc1cccc(C(F)(F)F)c1 (stereo not drawn) [Example compound 5, 4-(7-Fluoro-1-phenyl-3,4-dihydroisoquinolin-2(1H)-yl)-4-oxo-N-(3-(trifluoromethyl)benzyl)butyric acid amide] | – |
| 73 | 0.075 | O=C(CCC(=O)N1CCc2c(F)cccc2C1c1ccccc1)NCc1cccc(C(F)(F)F)c1 (stereo not drawn) [Example compound 6, 4-(5-Fluoro-1-phenyl-3,4-dihydro-1H-isoquinolin-2-yl)-4-oxo-N-[[3-(trifluoromethyl)phenyl]methyl]butyric acid amide] | – |
| 45 | 0.135 | CC1(C)CN(C(=O)CCC(=O)NCc2cccc(C(F)(F)F)c2)C(c2ccccc2)c2ccccc21 (stereo not drawn) [Example compound 10, 4-(4,4-Dimethyl-1-phenyl-1,3-dihydroisoquinolin-2-yl)-4-oxo-N-[[3-(trifluoromethyl)phenyl]methyl]butyric acid amide] | – |
